Like-named read-outs stand apart in the source and are kept apart here.
Key:
[1] = tested on: HCV replicon cells Huh 9B; format: cell-based
[2] = tested on: HCV replicon cells Huh 9B; test: HCV replicon assay (luciferase readout); format: cell-based
Method in brief: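 Compounds, made up at twice final strength (final DMSO 1%), were added to subgenomic replicon cells one day after plating. Incubation then ran 72 h at 37 °C, 5% CO2, without G418. Replication was quantified as firefly luciferase luminescence in lysed cells, with cytotoxicity assessed on a duplicate clear plate.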

[3] = concentration reducing total cell area by 50% relative to DMSO controls, methylene blue, absorbance 620 nm, 72 h incubation
[4] = Hepatitis C virus, 72 h, concentration reducing replicon level (luciferase activity) by 50% vs untreated cell control, 72 h incubation

Row | SMILES | TD50 [1, 3] | IC50 [2, 4] | TD50 [1] | IC50 [2]
1 | Cc1ccc(C(=O)Nc2ccc(N3CCOCC3)cc2)cc1-c1ccc(NC(=O)c2ccc(CN(C)C)cc2)cc1 [Example 117, 4′-(4-Dimethylaminomethyl-benzoylamino)-6-methyl-biphenyl-3-carboxylic acid (4-morpholin-4-yl-phenyl)-amide] | * (* < 50 μM) | 1000 to 5000 nM |  | 
2 | Cc1ccc(C(=O)Nc2ccc(N3CCOCC3)cc2)cc1-c1ccc(NC(=O)c2ccc(CN3CCOCC3)cc2)cc1 [Example 118, 6-Methyl-4′-(4-morpholin-4-ylmethyl-benzoylamino)-biphenyl-3-carboxylic acid (4-morpholin-4-yl-phenyl)-amide] | * (* < 50 μM) | > 5000 nM |  | 
3 | Cc1ccc(C(=O)Nc2ccc(N3CCOCC3)cc2)cc1-c1ccc(NC(=O)c2ccc(N3CCOCC3)cc2)cc1 [Example 119, 6-Methyl-4′-(4-morpholin-4-yl-benzoylamino)-biphenyl-3-carboxylic acid (4-morpholin-4-yl-phenyl)-amide] | ** (** > 50 μM) | 1000 to 5000 nM |  | 
4 | O=C(Nc1ccc(CN2CCS(=O)(=O)CC2)cc1)c1ccc(-c2cccc(C(=O)Nc3ccc(N4CCOCC4)cc3)c2)cc1 [Example 120, Biphenyl-3,4′-dicarboxylic acid 4′-{[4-(1,1-dioxo-1lambda*6 *-thiomorpholin-4-ylmethyl)-phenyl]-amide} 3-[(4-morpholin-4-yl-phenyl)-amide]] |  |  | ** (key: * < 50 μM; ** > 50 μM) | 1000 to 5000 nM
5 | Cc1ccc(C(=O)NC2CC2)cc1-c1ccc(C(=O)Nc2ccc(CN3CCS(=O)(=O)CC3)cc2)cc1 [Example 121, 6-Methyl-biphenyl-3,4′-dicarboxylic acid 3-cyclopropylamide 4′-{[4-(1,1-dioxo-1lambda*6*-thiomorpholin-4-ylmethyl)-phenyl]-amide}] |  |  | * (key: * < 50 μM; ** > 50 μM) | 1000 to 5000 nM
6 | Cc1ccc(C(=O)NCCC(C)C)cc1-c1ccc(C(=O)Nc2ccc(CN3CCS(=O)(=O)CC3)cc2)cc1 [Example 122, 6-Methyl-biphenyl-3,4′-dicarboxylic acid 4′-{[4-(1,1-dioxo-1lambda*6*-thiomorpholin-4-ylmethyl)-phenyl]-amide} 3-[(3-methyl-butyl)-amide]] |  |  | * (key: * < 50 μM; ** > 50 μM) | < 1000 nM
7 | Cc1ccc(C(=O)NCc2cccc(F)c2)cc1-c1ccc(C(=O)Nc2ccc(CN3CCS(=O)(=O)CC3)cc2)cc1 [Example 123, 6-Methyl-biphenyl-3,4′-dicarboxylic acid 4′-{[4-(1,1-dioxo-1lambda*6*-thiomorpholin-4-ylmethyl)-phenyl]-amide} 3-(3-fluoro-benzylamide)] |  |  | * (key: * < 50 μM; ** > 50 μM) | < 1000 nM
8 | Cc1ccc(C(=O)NCC2CCCO2)cc1-c1ccc(C(=O)Nc2ccc(CN3CCS(=O)(=O)CC3)cc2)cc1 (stereo not drawn) [Example 124, 6-Methyl-biphenyl-3,4′-dicarboxylic acid 4′-{[4-(1,1-dioxo-1lambda*6*-thiomorpholin-4-ylmethyl)-phenyl]-amide} 3-[(tetrahydro-furan-2-ylmethyl)-amide]] |  |  | * (key: * < 50 μM; ** > 50 μM) | 1000 to 5000 nM
9 | Cc1ccc(C(=O)NCCN2CCCCC2)cc1-c1ccc(C(=O)Nc2ccc(CN3CCS(=O)(=O)CC3)cc2)cc1 [Example 125, 6-Methyl-biphenyl-3,4′-dicarboxylic acid 4′-{[4-(1,1-dioxo-1lambda*6*-thiomorpholin-4-ylmethyl)-phenyl]-amide} 3-[(2-piperidin-1-yl-ethyl)-amide]] |  |  | * (key: * < 50 μM; ** > 50 μM) | 1000 to 5000 nM
10 | COCCNC(=O)c1ccc(C)c(-c2ccc(C(=O)Nc3ccc(CN4CCS(=O)(=O)CC4)cc3)cc2)c1 [Example 126, 6-Methyl-biphenyl-3,4′-dicarboxylic acid 4′-{[4-(1,1-dioxo-1lambda*6*-thiomorpholin-4-ylmethyl)-phenyl]-amide} 3-[(2-methoxy-ethyl)-amide]] |  |  | * (key: * < 50 μM; ** > 50 μM) | 1000 to 5000 nM
11 | Cc1ccc(C(=O)NCCc2cnc[nH]2)cc1-c1ccc(C(=O)Nc2ccc(CN3CCS(=O)(=O)CC3)cc2)cc1 [Example 127, 6-Methyl-biphenyl-3,4′-dicarboxylic acid 4′-{[4-(1,1-dioxo-1lambda*6*-thiomorpholin-4-ylmethyl)-phenyl]-amide} 3-{[2-(3H-imidazol-4-yl) -ethyl]-amide}] |  |  | * (key: * < 50 μM; ** > 50 μM) | 1000 to 5000 nM
12 | Cc1ccc(C(=O)N2CCC(N3CCCC3)CC2)cc1-c1ccc(C(=O)Nc2ccc(CN3CCS(=O)(=O)CC3)cc2)cc1 [Example 128, 2′-Methyl-5′-(4-pyrrolidin-1-yl-piperidine-1-carbonyl) -biphenyl-4-carboxylic acid [4-(1,1-dioxo-1lambda*6*-thiomorpholin-4-ylmethyl)-phenyl]-amide] | * (* < 50 μM) | 1000 to 5000 nM |  | 
13 | Cc1ccc(C(=O)Nc2ccc(CN3CCS(=O)(=O)CC3)cc2)cc1-c1ccc(C(=O)Nc2ccc(CN3CCS(=O)(=O)CC3)cc2)cc1 [Example 129, 6-Methyl-biphenyl-3,4′-dicarboxylic acid bis-{[4-(1,1-dioxo-1lambda*6*-thiomorpholin-4-ylmethyl)-phenyl]-amide}] | * (* < 50 μM) | < 1000 nM |  | 
14 | Cc1ccc(C(=O)Nc2ccc(N(C)C)cc2)cc1-c1ccc(C(=O)Nc2ccc(CN3CCS(=O)(=O)CC3)cc2)cc1 [Example 130, 6-Methyl-biphenyl-3,4′-dicarboxylic acid 3-[(4-dimethylamino-phenyl)-amide] 4′-{[4-(1,1-dioxo-1lambda*6*-thiomorpholin-4-ylmethyl)-phenyl]-amide}] |  |  | * (key: * < 50 μM; ** > 50 μM) | < 1000 nM
15 | Cc1cc(NC(=O)C2CC2)ccc1-c1cccc(C(=O)Nc2ccc(CN3CCS(=O)(=O)CC3)cc2)c1 [Example 131, 4′-(Cyclopropanecarbonyl-amino)-2′-methyl-biphenyl-3-carboxylic acid [4-(1,1-dioxo-1lambda*6*-thiomorpholin-4-ylmethyl)-phenyl]-amide] | * (* < 50 μM) | 1000 to 5000 nM |  | 
16 | Cc1ccc(NC(=O)C2CC2)cc1-c1ccc(C(=O)Nc2ccc(CN3CCS(=O)(=O)CC3)cc2)cc1 [Example 132, 5′-(Cyclopropanecarbonyl-amino)-2′-methyl-biphenyl-4-carboxylic acid [4-(1,1-dioxo-1lambda*6*-thiomorpholin-4-ylmethyl)-phenyl]-amide] | * (* < 50 μM) | < 1000 nM |  | 
17 | Cc1cc(NC(=O)c2ccco2)ccc1-c1cccc(C(=O)Nc2ccc(CN3CCS(=O)(=O)CC3)cc2)c1 [Example 133, Furan-2-carboxylic acid {3′-[4-(1,1-dioxo-1lambda*6*-thiomorpholin-4-ylmethyl)-phenylcarbamoyl]-2-methyl-biphenyl-4-yl}-amide] | * (* < 50 μM) | 1000 to 5000 nM |  | 
18 | COc1ccccc1C(=O)Nc1ccc(-c2cccc(C(=O)Nc3ccc(CN4CCS(=O)(=O)CC4)cc3)c2)c(C)c1 [Example 134, 4′-(2-Methoxy-benzoylamino)-2′-methyl-biphenyl-3-carboxylic acid [4-(1,1-dioxo-1lambda*6*-thiomorpholin-4-ylmethyl)-phenyl]-amide] | * (* < 50 μM) | 1000 to 5000 nM |  | 
19 | Cc1cc(C(=O)Nc2ccc(N3CCOCC3)cc2)ccc1-c1cccc(C(=O)Nc2ccc(CN3CCS(=O)(=O)CC3)cc2)c1 [Example 135, 2′-Methyl-biphenyl-3,4′-dicarboxylic acid 3-{[4-(1,1-dioxo-1 lambda*6*-thiomorpholin-4-ylmethyl)-phenyl]-amide} 4′-[(4-morpholin-4-yl-phenyl)-amide]] |  |  | * (key: * < 50 μM; ** > 50 μM) | < 1000 nM
20 | Cc1ccc(C(=O)Nc2ccc(N3CCOCC3)cc2)cc1-c1ccc(C(=O)Nc2cccc(CN3CCS(=O)(=O)CC3)c2)cc1 [Example 136, 6-Methyl-biphenyl-3,4′-dicarboxylic acid 4′-{[3-(1,1-dioxo-1lambda*6*-thiomorpholin-4-ylmethyl)-phenyl]-amide} 3-[(4-morpholin-4-yl-phenyl)-amide]] |  |  | * (key: * < 50 μM; ** > 50 μM) | 1000 to 5000 nM
21 | Cc1ccc(C(=O)NCCCN2CCCC2=O)cc1-c1ccc(C(=O)Nc2ccc(CN3CCS(=O)(=O)CC3)cc2)cc1 [Example 137, 6-Methyl-biphenyl-3,4′-dicarboxylic acid 4′-{[4-(1,1-dioxo-1lambda*6*-thiomorpholin-4-ylmethyl)-phenyl]-amide} 3-{[3-(2-oxo-pyrrolidin-1-yl) -propyl]-amide}] |  |  | * (key: * < 50 μM; ** > 50 μM) | 1000 to 5000 nM
22 | CCC1(c2ccc(NC(=O)c3ccc(C)c(-c4ccc(C(=O)Nc5ccc(CN6CCS(=O)(=O)CC6)cc5)cc4)c3)cc2)CCC(=O)NC1=O (stereo not drawn) [Example 138, 6-Methyl-biphenyl-3,4′-dicarboxylic acid 4′-{[4-(1,1-dioxo-1lambda*6*-thiomorpholin-4-ylmethyl)-phenyl]-amide} 3-{[4-(3-ethyl-2,6-dioxo-piperidin-3-yl)-phenyl]-amide}] |  |  | * (key: * < 50 μM; ** > 50 μM) | < 1000 nM
23 | Cc1ccc(C(=O)Nc2ccc(-n3cncn3)cc2)cc1-c1ccc(C(=O)Nc2ccc(CN3CCS(=O)(=O)CC3)cc2)cc1 [Example 139, 6-Methyl-biphenyl-3,4′-dicarboxylic acid 4′-{[4-(1,1-dioxo-1lambda*6*-thiomorpholin-4-ylmethyl)-phenyl]-amide} 3-[(4-[1,2,4]triazol-1-yl-phenyl)-amide]] |  |  | * (key: * < 50 μM; ** > 50 μM) | < 1000 nM
24 | Cc1ccc(C(=O)Nc2ccc(C(=O)N3CCOCC3)cc2)cc1-c1ccc(C(=O)Nc2ccc(CN3CCS(=O)(=O)CC3)cc2)cc1 [Example 140, 6-Methyl-biphenyl-3,4′-dicarboxylic acid 4′-{[4-(1,1-dioxo-1lambda*6*-thiomorpholin-4-ylmethyl)-phenyl]-amide} 3-{[4-(morpholine-4-carbonyl) -phenyl]-amide}] |  |  | * (key: * < 50 μM; ** > 50 μM) | 1000 to 5000 nM

Source: patent US8008303B2, “Biphenyl derivatives and their use in treating hepatitis C” (AstraZeneca AB, priority 2005, dated 2011)
